Row | SMILES | melting point [°C]
1 | Cc1ccc(S(=O)(=O)n2ccc3cc(-c4ccccc4)cnc32)cc1 | 151 to 152
2 | O=C(Nc1nc(-c2cc(Cl)nc(Cl)c2)cs1)NS(=O)(=O)c1ccccc1C(F)(F)F | > 280
3 | COc1cc(-c2ccc(O)c(C3(C)CCCCC3)c2)cc(CC2SC(N3CCCC3)=NC2=O)c1OC (centres undefined) | 227 to 230
4 | CCOC(=O)/C=C/c1nc(COc2ccc(CO)cc2OC)c(C)o1 | 96 to 97
5 | O=C(c1ccc2c(=O)n(CCCCN3CC=C(c4ccccc4)CC3)c(=O)[nH]c2c1)N1CCOCC1 | 206 to 210
6 | CSc1ccc(-c2nc(S)[nH]c2-c2ccc(SC)cc2)cc1 | 280
7 | Cc1ccc2c3c(ccc2n1)OC[C@H](CN1CCCN(c2ccc4cc(C#N)ccc4n2)CC1)O3 | 80 to 85
8 | CC(=O)c1ccc2c(c1)CN(C(=O)C(F)(F)F)CC2 | 80
9 | COc1ccc(C(=O)c2ccccc2)c([N+](=O)[O-])c1O | 137 to 139
10 | CC(=NOCCOc1ccc(CC2SC(=O)NC2=O)cc1)c1ccc(NS(=O)(=O)c2ccccc2)cc1 (centres undefined) | 213 to 215
11 | OCC1OC(n2c(Cl)nc3cc(Br)ccc32)C(O)C1O (centres undefined) | 154 to 155
12 | CN(C(=O)C1CCC1)c1cccc(-c2ccnc3c(C(=O)c4ccco4)cnn23)c1 | 166 to 167
13 | CCOC(=O)C1=Cc2cc(C=NO)ccc2OC1C(F)(F)F (centres undefined) | 113 to 116
14 | Cn1cnc2nc(-c3ccc(C#N)cc3)nn2c1=S | > 300
15 | COC1=NS(=O)(=O)N(Cc2ccccc2)C(N)=N1 | 141 to 144
16 | Cc1nc(CCCCCCC(=O)O)c(C(=O)O)s1 | 147 to 149
17 | CN(C1=NC(=O)CS1)c1ccc(C(O)(C(F)(F)F)C(F)(F)F)cc1 | 240 to 242
18 | N#Cc1ccc(Cc2nc3ccccc3[nH]2)cc1 | 133 to 136
19 | COc1ccc2c(OC(C)C)c(C(N)=O)ccc2c1 | 183 to 184
20 | CC(C)(O)Cc1c(Br)cnc2c(NC(=O)c3c(Cl)cccc3Cl)cccc12 | 260 to 262
21 | N[C@]1(C(=O)O)C=C[C@H]2[C@H](C(=O)O)[C@H]21 | > 250
22 | COc1ccc2ncc([N+](=O)[O-])c(O)c2c1 | 278 to 281
23 | COc1cc2c(cc1OC)CN(CCNc1ccc(NC(=O)c3cccc4c(=O)c5cccc(OC)c5[nH]c34)cc1)CC2 | 228 to 234
24 | COc1ccccc1/C=C/C(=O)/C=C/c1ccccc1OC | 124 to 126
25 | COC(=O)C(=CN(C)C)N(C)c1nc(-c2ccc(Br)cc2)cs1 | 184 to 185
26 | CC(C)=CCCC(C)=CC=C1SC(=S)N(CC(=O)O)C1=O | 95 to 98
27 | CNC(=O)NS(=O)(=O)c1cc(CCNC(=O)c2cc(Cl)ccc2OC)ccc1-c1ccco1 | 118 to 120

Row | SMILES | melting point [°C]
28 | COc1ccc(C(O)C(C)N)cc1OC (centres undefined) | 131 to 132
29 | COc1ccc([C@H](Sc2ccccc2N)[C@@H](O)C(N)=O)cc1 | 110 to 112
30 | O=S(=O)(CC(O)Cn1ccnc1)c1ccccc1 (centres undefined) | 153 to 156
31 | COc1ccc(/C(=C/C(=O)N2CCN(C(=O)c3cc(OC)c(OC(C)=O)c(OC)c3)CC2)c2ccccc2Cl)cc1 | 191 to 194
32 | CCCC(=O)OCC(=O)C12OCOC1CC1C3CCC4=CC(=O)C=CC4(C)C3C(O)CC12C (centres undefined) | 140 to 141
33 | O=C(OCc1ccccc1)N1CCC(Nc2nc3cccnc3n2Cc2ccc(F)cc2)CC1 | 130
34 | Cc1ccc2c(c1)c1cc(C(=O)O)sc1n2C | 216 to 219
35 | COC(=O)Cc1nc(-c2cc(C(C)(C)C)c(O)c(C(C)(C)C)c2)oc1C | 121 to 123
36 | Oc1ccc(C2CC(c3ccccc3)=NN2c2ccccc2)cc1 (centres undefined) | 144 to 145
37 | O=S1(=O)N2CN3CN1CP(C3)C2 | 274 to 275
38 | CC(C)N(C(C)C)S(=O)(=O)NC(=O)c1nsc2ccc(-n3c(=O)cc(C(F)(F)F)n(C)c3=O)cc12 | 214
39 | CC(=C1SC(=O)NC1=O)c1cccc(OCCOc2c(-c3ccc(F)c(F)c3)n(C)c3ccccc3c2=O)c1 | 236 to 240
40 | O=C(c1ccc(F)cn1)N1CCC[C@H](c2noc(-c3ccc(F)cc3)n2)C1 | 93 to 95
41 | O=S(=O)(c1ccccc1)c1cc2cc(Cl)ccc2[nH]1 | 137 to 138
42 | O=C(OCc1ccccc1)N1CCc2c(sc3nc(CN4C(=O)CCC4=O)c(Cl)c(-c4ccc(OCc5ccccc5)cc4)c23)C1 | 238 to 239
43 | CC(C)(C)c1cc(CCc2cc(F)ccc2NC(=O)NC2CCN(Cc3ccccc3)CC2)cc(C(C)(C)C)c1O | 108 to 109
44 | COCC1CN(c2ccc(C3CCC(O)CC3)cc2)C(=O)O1 (racemic) | 109 to 110
45 | COC(=O)CS(=O)(=O)N1CC=C(c2ccc(-c3ccccc3)c(OC)c2)CC1 | 92 to 95
46 | CCCc1nccn1-c1nc(-c2ccc(Cl)cc2)c(CCCOc2ccccc2OC)o1 | 89 to 90
47 | Fc1cccc(COc2ccc(Nc3ncnc4cc(C#Cc5ncccn5)sc34)cc2Cl)c1 | 236 to 240
48 | CC(=O)O[C@H]1C[C@@H]2CN(C(=O)c3ccc(NC(=O)c4ccccc4-c4ccccc4)cc3)c3ccccc3CN2C1 | 116 to 118
49 | O=C(O)c1ccccc1NCCCN1c2ccccc2CCc2ccccc21 | 170 to 172
50 | O=[N+]([O-])c1ccc(C(Cl)Cl)cc1 | 44 to 46
51 | CN(CC(=O)Nc1ccccc1)C(=O)CN1CCCC1=O | 145 to 146
52 | N#Cc1oc2cc(Cl)ccc2c1O | 205
53 | O=C(CCCCOc1ccc(-c2ccc(F)cc2)cc1)NO | 160 to 162
54 | CCCCCS(=O)(=O)NC(=O)CCc1cc(C(C)C)nn1Cc1ccc(C(F)(F)F)cc1Cl | 144 to 145

Other lines, results leading:

Row | melting point [°C] | SMILES
55 | 95 to 96 | CCCCCCCN(CCc1ccc(OC(C)(C)C(=O)O)cc1)C(=O)Nc1ccc(OC)cc1OC
56 | 252 to 254 | COC1C(O)C(CO)OC1n1ccc(N)nc1=O (centres undefined)
57 | 131 to 132 | N#C[C@@H](NCc1ccccc1)[C@@H]1CSC(=O)N1Cc1ccccc1
58 | 84 to 86 | CCOC(=O)C1=C(C)NC(COC(C)=O)=C(C(=O)OCC)C1c1ccccc1OC (centres undefined)
59 | 138 to 140 | COc1ccc2nc(CSc3cc(C)ccn3)[nH]c2c1
60 | 158 | O=C1c2nccc(-c3ccccc3NC(=O)C(F)(F)F)c2C(=O)c2c([N+](=O)[O-])ccnc21
61 | 122 to 125 | Cc1cc(F)ccc1NC(=O)CCC#Cc1cccc(CF)n1
62 | 222 to 225 | O=C(O)C1=Cc2cc(Cl)c(Cl)c(Cl)c2OC1C(F)(F)F (centres undefined)
63 | 84 to 86 | CC1CN(c2ccc(Cl)cc2)N=C1NCC(F)(F)F (centres undefined)
64 | 217 to 219 | CCc1c2s[nH]c(=O)c2c(=O)n2ccc(N3CCC(N(C)C)C3)cc12 (centres undefined)
65 | 105 to 107 | O=C1CSCN1CCCCN1CCN(c2ccc3ccccc3n2)CC1
66 | 99.5 | C#CCCCn1ncc2c(N)c(C(=O)OCC=C)c(C)nc21
67 | 258 to 264 | Cc1c[nH]c(=O)nc1-n1cncn1
68 | 148 to 149 | COC(=O)c1ccc(Cc2c[nH]c3ccc(C#N)cc23)c(OC)c1
69 | 150 to 151 | COC(=O)c1ccc(-c2nc(-c3cccc(Cl)c3)cs2)cc1
70 | 111 to 112 | COC(=O)C[C@@H]1C[C@@H](COc2ccc(-c3ccc(C#N)cc3)cc2N)N(CCCc2ccccc2)C1=O
71 | 148 to 150 | CN(CCN1CCN(c2ccc(C(F)(F)F)cc2)CC1)C[C@@]1(C)Cn2cc([N+](=O)[O-])nc2O1
72 | 85 | CCN1CCC(C(=O)NO)(S(=O)(=O)c2ccc(OC)cc2)CC1
73 | 98 to 98.5 | CN1C(=O)C(CCCN2CCN(c3ccc(F)cc3)CC2)Oc2cc3c(cc21)CCCC3 (centres undefined)
74 | 94 to 95 | CNC(=O)C(=O)CCCCCCSc1ccc2ccccc2c1
75 | 134 to 135 | Cc1ccc(-c2coc3c(C)c(C)cc(C)c23)nc1
76 | 139 to 142 | O=C(Cl)c1sc2ccc(OCc3ccccc3)cc2c1Cl
77 | 155 to 157 | O=C(NCCC1OCCO1)c1cc(Br)c(Br)[nH]1

Row | melting point [°C] | SMILES
78 | 71 to 72 | COC(=O)[C@H](Cc1ccccc1)NC(=O)CCC#N
79 | 132 to 135 | CCOC(=O)c1ccc(-c2ccc(-c3ccccc3OCOC)c(-c3ccc4c(c3)C(C)(C)CCC4(C)C)c2)cc1
80 | 165 to 167 | O=C(NC1CCCCC1)NS(=O)(=O)c1cnccc1NC1CCCCC1
81 | 154 to 156 | CC(C)C(=O)c1ccc2cc(O)c(O)cc2c1
82 | 145 to 146 | O=C(O)COc1ccc(SCc2cccc(OCc3ccc(C(F)(F)F)cc3)c2)c2c1CCC2
83 | 164 to 166 | COc1c(Cl)cccc1NS(=O)(=O)c1cc(S(=O)(=O)Nc2cccc(Cl)c2OC)c2cc(O)ccc2c1
84 | 123 to 125 | Cc1ccccc1CC1=NNC(=O)CC1
85 | 50 to 51 | O=C(Nc1ccc(OCCN2CCOCC2)c2ccccc12)c1cc(N2CCOCC2)ncn1
86 | 136 | Cc1ccc(S(=O)(=O)N2[C@@H](CCC(N)=O)CC[C@H]2c2ccc(F)cc2)cc1 (racemic)
87 | 121 to 123 | Cc1nn(-c2c(Cl)cc(C(F)(F)F)cc2Cl)c(N)c1C#C[Si](C)(C)C
88 | 185 to 187 | Cc1cccc(Nc2ncnc3cnc(NC4CCN(C(=O)N(C)C)CC4)nc23)c1
89 | 120 to 121 | CC(=O)c1cc2cc(Br)ccc2s1
90 | 80 to 82 | C=C(Br)n1ccnc1[N+](=O)[O-]
91 | 144 to 145 | Cc1cc(NC(=O)OC(C)(C)C)c(C)c2c1OC(C)(C)C2=O
92 | 173 to 175 | CSc1nn(C)c2ccccc2c1=O
93 | 88 to 89 | COC(=O)C1=Cc2cc(Br)ccc2N(C)CCC1
94 | 151 to 152 | O=C(O)[C@H](Cc1ccc(C(F)(F)F)cc1)[C@@H](O)c1cccc2ccccc12 (racemic)
95 | 137 to 138 | CC(=O)NC1=CCc2ccccc21
96 | 302 | CS(=O)(=O)N1CCCn2c(nc3c(N)nc4cc(-c5cccnc5)ccc4c32)C1
97 | 212 to 216 | N#Cc1ccc(Oc2cc3c(cc2Cl)C=C(C(=O)O)C(C(F)(F)F)O3)cc1 (centres undefined)
98 | 131 to 133 | O=C(c1ccc(-c2ccccc2)cc1)C(Br)CC(=O)N1CCC[C@H]1C(=O)O (some centres undefined)
99 | 70 to 71 | C=CCO[C@@H]1CC(C(=O)O)=C[C@@H](OC(C)C)[C@@H]1NC(C)=O

— a melting point compilation (Tetko et al.; mined from patent text by program, amines drawn as free bases though some values may be those of a salt)
